The values that follow come from US6455041B1, “Immunogenic epitopes of the human zona pellucida protein (ZP1)” (priority 1998, dated 2002).

The test system of test [1] is antibodies in sera of baboons administered electrophoretically purified, denatured porcine ZP proteins. In words: Biotinylated peptide assay, sera from baboons immunized with chemically deglycosylated, electrophoretically purified porcine ZP proteins. To be noted: two baboons immunized with deglycosylated, FIGS. 3A-3B. The format is binding, baboon. The method, then: (§1) Peptides containing 15 amino acid residues, which overlapped by 9 amino acids, were designed to ensure that all potential epitopes would be identified. Biotinylated peptides (BP) containing 15-mers with a 9-amino acid overlap were synthesized by Chiron Mimotopes Pty. Ltd. (Victoria, Australia).
(§2) For the assay, streptavidin (Sigma Chemicals, S-4762) was diluted to 5 μg/ml in deionized water and dispensed at 100 μl well into 96-well microtiter plates (Immulon 2, Dynatech Labs) and plates are incubated overnight at 32° C. to evaporate to complete dryness. Plates were then rinsed four times in wash buffer of pH 7.3, consisting of 0.02M sodium phosphate containing 0.15M NaCl and 0.05% Tween 20. The plates were blocked using 200 μl 0.02M sodium phosphate buffered saline (PBS) containing 2% nonfat dried milk (pH 8.8) for 2 hours at room temperature and the rinse was repeated. Blocking and all incubations were carried out using a Minimix shaker (Fisher). […]
(§3) After rinsing with blocking solution, 100 μl/well of antibody solution was added and plates incubated at RT for 2 hours with shaking. […] The plates were incubated at RT with shaking for 45 minutes and read in a Titertek Multiskan reader at 405 nm. […]
Additional sera from baboons administered electrophoretically purified, denatured porcine ZP proteins as the immunogen (35), were evaluated. […]

Test [2] has as its system antibodies from rabbits immunized with heat solubilized, native porcine ZP proteins (HSZP). In words: Biotinylated peptide assay, pooled antisera from rabbits immunized with porcine ZP (HSPZ). Conditions: Complete Freund's Adjuvant, FIG. 1B. The format is binding, rabbit. The method, then: as §1
as §2, with “(Fisher). Biotinylated peptides were then dispensed such that the final: dilution of each was 1:10,000 and was made in wash buffer containing 2% nonfat dried milk.” for “(Fisher).”
as §3

Test [3] has as its system antibodies from baboons immunized with HSZP. Nature of the test: Biotinylated peptide assay, antisera from baboons immunized with porcine ZP (HSPZ). The format is binding, baboon. To be noted: for peptide recognition by sera of individual baboons: four baboons (#1994, #2020, #2044, #2032) immunized with HSZP, sera 3 weeks after second booster, dilution 1/1000, FIGS. 2A-2D; for peptide recognition by baboon serum pool: pooled antisera from baboons immunized with HSZP, TiterMax adjuvant, FIG. 1C. The method, then:
Lyophilized porcine ZP immogen was prepared and solubilized in 0.1 M sodium carbonate, pH 9.6 and heated at 60° C. for ten minutes as previously described (42, 45). Immunogen was emulsified in Titer Max adjuvant (50%) by passage through syringes with 19 gauge needles connected by tygon tubing. Animals were sedated with Ketarmine (10 mg/kg) prior to injection with 200 μl containing ^150 μg ZP immunogen (primary and boosts). Animals were immunized and boosted at 3 week and 6 week intervals.
Blood samples were collected at approximately 3 week intervals following the booster injections, and were obtained from femoral veins under Ketamine sedation. Serum was isolated by conventional methods an conveyed frozen to the U.S.A. laboratory facility for analysis. For the present studies, serum samples taken at three weeks following the second booster injection were used. The ELISA assay previously described by Drell and Dunbar, 1984 (46) was used to determine the levels of antibody against immobilized HSPZ. Antisera previously obtained from baboons immunized against electrophoretically purified porcine ZP1 (35) were used as a positive control for these assays. Nonimmune sera from animals immunized with adjuvant alone were used as a negative control.
as §1
For the assay, streptavidin (Sigma Chemicals, S-4762) was diluted to 5 μg/ml in deionized water and dispensed at 100 μl well into 96-well microtiter plates (Immulon 2, Dynatech Labs) and plates are incubated overnight at 32° C. to evaporate to complete dryness. Plates were then rinsed four times in wash buffer of pH 7.3, consisting of 0.02M sodium phosphate containing 0.15M NaCl and 0.05% Tween 20. The plates were blocked using 200 μl 0.02M sodium phosphate buffered saline (PBS) containing 2% nonfat dried milk (pH 8.8) for 2 hours at room temperature and the rinse was repeated. Blocking and all incubations were carried out using a Minimix shaker (Fisher). Biotinylated peptides were then dispensed such that the final: dilution of each was 1:10,000 and was made in wash buffer containing 2% nonfat dried milk. Peptides (100 μl per well) were incubated overnight at 4° C. on the shaker.
Initially, each peptide was solubilized in 200 μl of DMSO per manufacturers' instructions and stored this long term at −80° C. Approximately 2 μl was used to make a 1:5,000 stock solution diluted in PBs containing 0.1% BSA and 0.1% sodium aside. These stocks were then stored at −20° C. and are diluted 1:10,000 for assays. […]

Regarding “54 (SGSGFPETQPGPLTLELQI; listed as Homo sapiens) [compound 54]”, the “peptide recognition by baboon sera” value in test [1] was “again recognized by the baboon sera”. Besides, the “peptide recognition by rabbit serum pool” value in test [2] was “recognized by both serum pools”. In addition, in test [3], the “peptide recognition by sera of individual baboons” value is recorded as “all four of the animals recognized” and the “peptide recognition by baboon serum pool” value was “recognized by both serum pools”.
On to “55 (SGSGGPLTLELQIAKDKNY; listed as Homo sapiens) [compound 55]”, for which, in test [1], the “peptide recognition by baboon sera” value is “again recognized by the baboon sera”. Moreover, in test [2], the “peptide recognition by rabbit serum pool” value is “recognized by both serum pools”. For the same substance, in test [3], the “peptide recognition by sera of individual baboons” value is listed as “all four of the animals recognized” and the “peptide recognition by baboon serum pool” value is on record as “recognized by both serum pools”.
